The results in this text go back to PubChem BioAssay (NCI).

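Method: 48-hour compound exposure of cells in 96-well plates, five concentrations, linear interpolation of endpoints. Here, GI50 denotes the concentration required for 50% inhibition of growth. At the TGI there is no net growth.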

Test systems include TK-10 renal; MDA-MB-231 breast; 786-0 renal; A549 NSCLC; OVCAR-3 ovarian; NCI/ADR-RES ovarian; MALME-3M melanoma; NCI-H226 lung; U251 CNS; HCC-2998 colon.
What all share (test): NCI-60 cell line screen, 48 h

Regarding `Cc1cc(C(=O)CC(Cl)=C(Cl)Cl)c(Cl)cc1Cl`, the GI50 in the assay with TK-10 renal was 15.9 µM; in the assay on MDA-MB-231 breast, 23.4 µM; in the assay on 786-0 renal it was 22.1 µM; in the assay with A549 NSCLC, 23.7 µM; in the assay with OVCAR-3 ovarian, 21.4 µM; in the assay with NCI/ADR-RES ovarian, 33.5 µM. In addition, the GI50 was 14.3 µM in the assay on MALME-3M melanoma, 23.9 µM with NCI-H226 lung and 18.6 µM in the assay with U251 CNS. For the same molecule, the TGI is 32 µM in the assay on TK-10 renal; 46.2 µM in the assay on MDA-MB-231 breast; 42.1 µM in the assay with 786-0 renal; 65.9 µM in the assay with A549 NSCLC; 54.1 µM in the assay on OVCAR-3 ovarian; over 100 µM in the assay with NCI/ADR-RES ovarian. In addition, the TGI with MALME-3M melanoma came to 34.5 µM; in the assay with NCI-H226 lung, 76.3 µM; in the assay with U251 CNS, 38.1 µM.
`O=C(O)CC(S)C(=O)O.[Li+].[Sb]` (stereo not drawn): the GI50 with TK-10 renal, with MDA-MB-231 breast, in the assay on 786-0 renal, with A549 NSCLC, in the assay on OVCAR-3 ovarian and in the assay with NCI/ADR-RES ovarian was over 100 µM throughout. The GI50 in the assay on NCI-H226 lung was over 100 µM; in the assay with U251 CNS, 39.9 µM. For the same molecule, the TGI in the assay on TK-10 renal, with MDA-MB-231 breast, with 786-0 renal, in the assay on A549 NSCLC, in the assay with OVCAR-3 ovarian and with NCI/ADR-RES ovarian was over 100 µM in each case. The TGI with NCI-H226 lung and in the assay with U251 CNS was over 100 µM throughout.
Consider `COc1ccc2[nH]cc(Cc3c[nH]c4ccc(OC)cc34)c2c1`, for which the GI50 in the assay with TK-10 renal was 15.9 µM; in the assay on MDA-MB-231 breast, 4.65 µM; in the assay on 786-0 renal it was 38.9 µM; in the assay with A549 NSCLC, 19.1 µM; with OVCAR-3 ovarian it was 13.3 µM; in the assay with NCI/ADR-RES ovarian, 20.4 µM. Besides, the GI50 is 18.5 µM with NCI-H226 lung and 15.9 µM with U251 CNS. The TGI in the assay on TK-10 renal was 44 µM; with MDA-MB-231 breast it was 19.4 µM; in the assay on 786-0 renal, over 100 µM; in the assay with A549 NSCLC it was 46.9 µM; in the assay on OVCAR-3 ovarian, 31.3 µM; with NCI/ADR-RES ovarian it was 42.1 µM. Moreover, the TGI worked out at 48.9 µM in the assay on NCI-H226 lung and 29.4 µM in the assay with U251 CNS.
With `CC1OC(OC2C(O)C(OCCc3ccc(O)c(O)c3)OC(CO)C2OC(=O)/C=C/c2ccc(O)c(O)c2)C(O)C(O)C1O` (stereo not drawn), the GI50 with TK-10 renal was over 100 µM; in the assay with MDA-MB-231 breast it was 16.3 µM; with 786-0 renal, 14.5 µM; in the assay on A549 NSCLC, over 100 µM; with OVCAR-3 ovarian it was 27.4 µM; with NCI/ADR-RES ovarian, over 100 µM. Moreover, in the assay with HCC-2998 colon, the GI50 is 19 µM. Moreover, the TGI with TK-10 renal is over 100 µM; with MDA-MB-231 breast, 34.7 µM; with 786-0 renal it was 36.3 µM; with A549 NSCLC, over 100 µM; with OVCAR-3 ovarian, 79.7 µM; in the assay with NCI/ADR-RES ovarian it was over 100 µM. In the assay with HCC-2998 colon, this molecule returned a TGI of 35.6 µM.
With `CN(C)c1ccc2cc3c(cc2c1)Oc1ccccc1N3.[Cl][Zn][Cl]`, the GI50 was 6.2 µM with TK-10 renal; 1.83 µM in the assay on MDA-MB-231 breast; 2.85 µM in the assay on 786-0 renal; 20.9 µM in the assay on A549 NSCLC; 1.5 µM in the assay with OVCAR-3 ovarian; 16.8 µM in the assay with NCI/ADR-RES ovarian. The GI50 is 16.5 µM in the assay on HCC-2998 colon, 3.04 µM in the assay with MALME-3M melanoma and 1.73 µM in the assay on NCI-H226 lung. For the same molecule, the TGI in the assay with TK-10 renal is 16.5 µM; in the assay with MDA-MB-231 breast it was 4.51 µM; in the assay on 786-0 renal, 9.48 µM; in the assay with A549 NSCLC, 51.5 µM; in the assay with OVCAR-3 ovarian it was 3 µM; in the assay on NCI/ADR-RES ovarian it was 83.3 µM. Further, the TGI in the assay with HCC-2998 colon is 31.8 µM; in the assay on MALME-3M melanoma, 9.6 µM; in the assay on NCI-H226 lung it was 4.07 µM.
With `COc1ccc2c(c1)C(=O)/C(=C/c1cccc(OCC(=O)c3ccc([N+](=O)[O-])cc3)c1)CO2`, the GI50 in the assay on TK-10 renal is 2.97 µM; with MDA-MB-231 breast, 3.67 µM; in the assay with 786-0 renal it was 2 µM; in the assay with A549 NSCLC it was 6.72 µM; in the assay on OVCAR-3 ovarian, 1.94 µM; in the assay with NCI/ADR-RES ovarian it was 2.03 µM. For the same molecule, the figures for the GI50 in the assay with MALME-3M melanoma, in the assay with NCI-H226 lung and with U251 CNS were 2.91 µM, 7.06 µM and 1.6 µM, respectively. Besides, the TGI with TK-10 renal was found to be 7.49 µM; in the assay on MDA-MB-231 breast, 14.2 µM; in the assay with 786-0 renal, 4.83 µM; in the assay on A549 NSCLC, 22.8 µM; in the assay on OVCAR-3 ovarian it was 3.72 µM; in the assay on NCI/ADR-RES ovarian, 5.02 µM. Further, the TGI amounted to 10.9 µM with MALME-3M melanoma, 23.3 µM in the assay with NCI-H226 lung and 3.16 µM in the assay on U251 CNS.
`COc1ccccc1-c1ccc2c(N)c(C(=O)c3ccc4c(c3)OCO4)sc2n1`: the GI50 in the assay with TK-10 renal is 12.8 µM; in the assay on MDA-MB-231 breast it was 2.81 µM; in the assay on 786-0 renal, 2.78 µM; in the assay on A549 NSCLC, 4.05 µM; in the assay with OVCAR-3 ovarian, 5.18 µM; in the assay with NCI/ADR-RES ovarian, 4.13 µM. Moreover, the GI50 in the assay on HCC-2998 colon was 12 µM; in the assay with MALME-3M melanoma, 4.9 µM; in the assay on NCI-H226 lung it was 7.35 µM. For the same molecule, the TGI in the assay with TK-10 renal turned out to be 28.6 µM; in the assay on MDA-MB-231 breast, 8.59 µM; in the assay with 786-0 renal, 11.3 µM; with A549 NSCLC it was 16.6 µM; in the assay on OVCAR-3 ovarian it was 22 µM; in the assay with NCI/ADR-RES ovarian, 16.7 µM. Moreover, the figures for the TGI in the assay on HCC-2998 colon, in the assay with MALME-3M melanoma and in the assay on NCI-H226 lung were 29.1 µM, 16 µM and 31.8 µM, respectively.
